{"source": "patent US20080299076A1", "about": "“Compunds and compositions that cause non-apoptotic cell death and uses thereof” (priority 2006, published 2008)", "key": {"[1]": {"test_system": "BJ-TERT/LT/ST/RAS^V12 cells", "test": "Annexin V staining", "type": "cell-based, human", "details": "erastin 9 μM", "procedure": "The percentage of cells in the indicated Ml region were 6%, 6%, and 38% in untreated, erastin-treated (9 μM), and camptothecin-treated (1 μM), respectively."}, "PARP1": {"test_system": "PARP1", "test": "PARP1 cleavage (western blot)", "type": "cell-based, human", "details": "BJ-TERT/LT/ST/RAS^V12 cells; staurosporine 1 μM 6 h, camptothecin 1 μM 18 h, erastin 20 μg/mL", "procedure": "BJ-TERT/LT/ST/RAS^V12 tumor cells were seeded in six-well dishes, incubated overnight at 37° C. with 5% CO2 and were treated with nothing (NT), staurosporine (ST, 1 μM) for 6 h, camptothecin (C, 1 μM) for 18 h, or erastin (20 μg/mL) for the indicated time, lysed and analyzed by western blot with an anti-PARP1 antibody. A relatively high concentration of erastin was used to ensure loss of PARP cleavage was not due to a concentration-dependent effect.\nBJ-TERT/LT/ST/RAS^V12 cells were seeded in polystyrene 100×20 mm dishes (Falcon/#353003) in 10 ml of media. Three million cells were seeded in each dish. After overnight incubation at 37° C. with 5% CO2, BJ-TERT/LT/ST/RAS^V12 cells were treated with nothing, staurosporine (1 μM) for 6 h, camptothecin (1 μM) for 18 h or erastin (20 μg/mL) for 6, 10, 12, 12.5, 13, 14, 18 or 26 h, and prepared for western blotting."}, "[2]": {"test": "Stability in human liver microsomes", "type": "in vitro ADME", "details": "after 1 hr", "procedure": "The stability of erastin in mouse and human liver microsomes and in mouse and human plasma was assessed. In both human and mouse liver microsomes, after 1 hr, ˜30% of erastin was converted to its primary metabolite (the O-de-ethylated product). In both human and mouse plasma, only ˜10% of erastin was lost after five hours. Thus, erastin has sufficient metabolic and plasma stability to be tested in vivo in mice."}, "HL-60": {"test_system": "HL-60", "test": "Response of tumor cell lines to erastin (dose-response)", "type": "cell-based", "procedure": "(§1) Given that oncogenic RAS activates at least four downstream pathways, analysis was performed to identify which downstream effects were necessary for erastin sensitivity. In certain embodiments, the invention provides that erastin inhibits growth and kills genuine tumor cells with RAS mutations. In other embodiments, the invention provides measures of the dose-response of 29 tumor cell lines to erastin, wherein there is at least 50% inhibition of viability in 18 of the cell lines (Table 4). Numerous sarcoma-derived tumor cell lines were sensitive to erastin, consistent with the fact that erastin was discovered in an engineered tumor cell line created from human fibroblasts."}, "HOS": {"test_system": "HOS", "test": "Response of tumor cell lines to erastin (dose-response)", "type": "cell-based", "procedure": "as §1"}, "A431NS": {"test_system": "A431NS", "test": "Response of tumor cell lines to erastin (dose-response)", "type": "cell-based", "details": "Epidermoid carcinoma", "procedure": "as §1"}, "U973": {"test_system": "U973", "test": "Response of tumor cell lines to erastin (dose-response)", "type": "cell-based", "procedure": "as §1"}, "SW982": {"test_system": "SW982", "test": "Response of tumor cell lines to erastin (dose-response)", "type": "cell-based", "details": "SW982, synovial sarcoma", "procedure": "as §1"}, "Hs51.T": {"test_system": "Hs51.T", "test": "Response of tumor cell lines to erastin (dose-response)", "type": "cell-based", "procedure": "as §1"}, "VDAC2, VDAC3": {"test_system": "VDAC2, VDAC3", "test": "VDAC isoform levels after erastin treatment (quantitative 2D western)", "type": "cell-based, human", "source_text": "Quantitative western blot of VDAC/eif4E protein ratio in engineered BJ-derived cells. (b) Identification of VDAC isoforms in BJ-TERT/LT/ST/RAS^V12 cells using 2-D electrophoresis. i) VDAC1, VDAC2 and VDAC3 were detected by a rabbit polyclonal VDAC antibody (Abcam/ab3434), ii) VDAC1 was detected by a mouse monoclonal VDAC1 antibody (Calbiochem/529534), iii) VDAC2 was detected by a goat polyclonal VDAC2 antibody (Abcam/ab22170), iv) An illustration of 3 isoforms of VDAC separated by the 2-D gel electrophoresis. (c) BJ-TERT/LT/ST/RAS^V12 cells were treated with erastin for the indicated time and levels of each VDAC isoform determined by quantitative 2D western. (d,e) Infection with VDAC3 shRNA protects erastin-treated cells. 293T cells were transfected with shRNA-plasmid construct using FuGene and viral supernatant transferred to HT1080 cells, and treated with erastin dilutions and viability measured using Trypan Blue exclusion. […] (f) Quantitative RT-PCR measurements of mRNA levels of the 3 VDAC isoforms after infection with shVDAC3. Knockdown was determined by normalizing to the levels in the shGFP-infected control. […] (g) Mitochondria were purified from yeast expressing murine VDAC3 in place of yeast VDAC, and the rate of NADH uptake determined in the presence or absence of erastin, or in shocked mitochondria in which the outer membrane was disrupted. […]"}, "tumor cell lines": {"test_system": "tumor cell lines", "test": "Dose-response of panel of tumor cell lines to erastin", "type": "cell-based", "procedure": "In certain aspects, the invention provides that erastin is lethal to tumor cells with activating mutations in proteins downstream of RAS proteins. Dose-response of 30 tumor cell lines to erastin was measured, and at least 50% inhibition of cell viability in 19 of the 30 tumor cell lines was formed. Numerous sarcoma-derived tumor cell lines were sensitive to erastin, consistent with the fact that erastin was discovered in an engineered tumor cell line created from human fibroblasts. Non-limiting examples include, HT1080 fibrosarcoma cells. HT1080 fibrosarcoma cells, which have a known activating mutation in NRAS, (Plattner, R. et al. Differential contribution of the ERK and JNK mitogen-activated protein kinase cascades to Ras transformation of HT1080 fibrosarcoma and DLD-1 colon carcinoma cells. Oncogene. 18: 1807-17 (1999)), were quite sensitive to erastin. In order to determine whether RAS-activated signaling was modulated in cell lines that respond to erastin, the phosphorylation status of ERK1/2 in 12 sarcoma cell lines with a range of sensitivities to erastin was evaluated. In certain aspects, the invention provides a non-zero correlation, such as for example, a correlation coefficient of 0.41, between ERK1/2 phosphorylation status and erastin sensitivity in these cell lines. […]"}}}
{"molecule": "CCOc1ccccc1-n1c(C(C)N2CCN(C(=O)COc3ccc(Cl)cc3)CC2)nc2ccccc2c1=O", "note": "(stereo not drawn) [erastin, 2-(1-{4-[2-(4-Chloro-phenoxy)-acetyl]-piperazin-1-yl}-ethyl)-3-(2-ethoxy-phenyl)-3H-quinazolin-4-one]", "values": [{"measurement": "percentage of cells in M1 region (Annexin V staining)", "setting": "[1]", "result": 6, "unit": "%"}, {"measurement": "PARP1 cleavage", "setting": "PARP1", "result": "unaffected"}, {"measurement": "converted to primary metabolite (O-de-ethylated product)", "setting": "[2]", "result": "~30", "unit": "%"}, {"measurement": "Erastin Sensitivity (maximum percent killing, as fraction)", "setting": "HL-60; HL 60", "result": 0.00}, {"measurement": "Max % killing", "setting": "HL-60; HL-60, acute promyelocytic leukemia", "result": 0, "unit": "%"}, {"measurement": "EC50", "setting": "HOS; Homo sapiens", "result": 17, "unit": "µM"}, {"measurement": "Max % killing", "setting": "HOS; Osteosarcoma", "result": 100, "unit": "%"}, {"measurement": "Max % killing", "setting": "A431NS", "result": 0, "unit": "%"}, {"measurement": "Erastin Sensitivity (maximum percent killing, as fraction)", "setting": "U973; U937", "result": 0.73}, {"measurement": "Max % killing", "setting": "U973; U973, Acute myelogenous leukemia", "result": 73, "unit": "%"}, {"measurement": "EC50", "setting": "U973; U-973, U973", "result": 10, "unit": "µM"}, {"measurement": "Max % killing", "setting": "SW982", "result": 0, "unit": "%"}, {"measurement": "EC50", "setting": "Hs51.T", "result": 12, "unit": "µM"}, {"measurement": "Max % killing", "setting": "Hs51.T; Spindle cell sarcoma", "result": 88, "unit": "%"}, {"measurement": "VDAC3 protein level", "setting": "VDAC2, VDAC3; after 8 hours of erastin treatment", "result": "no longer detectable"}, {"measurement": "VDAC2 protein level", "setting": "VDAC2, VDAC3; after 10 hours of erastin treatment", "result": "undetectable"}, {"measurement": "number of cell lines with at least 50% inhibition of viability", "setting": "tumor cell lines; of 29 tumor cell lines", "result": 18}, {"measurement": "number of cell lines with at least 50% inhibition of cell viability", "setting": "tumor cell lines; of 30 tumor cell lines", "result": 19}]}
